pIC50, pKd: −log10 of the molar value. Read-outs that look alike come from different tables or passages of the source.
Assays:
[1] = target: GDP-bound KRAS wild-type protein (Homo sapiens, UniProt P01116); test: Binding to KRAS by surface plasmon resonance (SPR), dissociation constant KD
Method in brief: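 Recombinant RAS proteins bearing a biotinylated Avi tag and loaded with GDP served as the captured ligand, recaptured fresh every cycle. Binding responses were referenced to an uncoated surface and a buffer-only blank cycle. Dissociation constants were obtained by 1:1 model fitting at 30°C.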

[2] = target: GDP-bound NRAS wild-type protein (Homo sapiens, UniProt P01111); test: Binding to NRAS by surface plasmon resonance (SPR), KD and KD ratio to KRAS
Method in brief: (§1)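 Biotinylated GDP-bound RAS was captured at about 100–300 RU. Running buffer: HBS pH 7.4, 10 mM MgCl2, 10 µM GDP, 1 mM DTT, 0.01% Tween 20, 4% DMSO.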

[3] = target: HRAS wild-type protein (Homo sapiens, UniProt P01112); test: Binding to HRAS by surface plasmon resonance (SPR), KD and KD ratio to KRAS
Method in brief: as §1

[4] = system: human lung cancer strain NCI-H441; test: NCI-H441 cell proliferation inhibitory activity (CellTiter-Glo, 4 days); assay type: cell-based; details: read-out: NCl-H441 IC50
Method in brief: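 Step one: dispense the test compound in serial DMSO dilutions. Step three: add the reagent and measure […].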

[5] = ratio of KD for GDP-bound NRAS wild-type protein to KD for KRAS
[6] = ratio of KD for HRAS wild-type protein to KD for KRAS
[7] = Single Cycle Kinetics, 1:1 binding model
[8] = ratio of KD with respect to GDP-bound NRAS wild-type protein to KD with respect to KRAS
[9] = ratio of KD with respect to HRAS wild-type protein to KD with respect to KRAS
[10] = 50% proliferation inhibitory concentration, four days

Sequence of GDP-bound NRAS wild-type protein (P01111 whole entry): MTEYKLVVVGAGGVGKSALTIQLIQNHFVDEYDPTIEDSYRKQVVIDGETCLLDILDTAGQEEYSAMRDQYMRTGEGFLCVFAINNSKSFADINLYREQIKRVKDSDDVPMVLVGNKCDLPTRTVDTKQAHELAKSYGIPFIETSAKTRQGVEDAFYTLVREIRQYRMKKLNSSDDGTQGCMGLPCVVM
Sequence of HRAS wild-type protein (P01112 whole entry): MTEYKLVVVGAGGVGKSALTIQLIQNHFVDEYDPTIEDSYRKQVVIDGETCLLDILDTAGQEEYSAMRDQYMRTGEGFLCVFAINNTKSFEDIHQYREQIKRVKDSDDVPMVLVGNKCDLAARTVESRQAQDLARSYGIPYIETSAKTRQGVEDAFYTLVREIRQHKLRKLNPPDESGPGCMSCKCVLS
Sequence of GDP-bound KRAS wild-type protein (P01116 1-188 isoform P01116-2): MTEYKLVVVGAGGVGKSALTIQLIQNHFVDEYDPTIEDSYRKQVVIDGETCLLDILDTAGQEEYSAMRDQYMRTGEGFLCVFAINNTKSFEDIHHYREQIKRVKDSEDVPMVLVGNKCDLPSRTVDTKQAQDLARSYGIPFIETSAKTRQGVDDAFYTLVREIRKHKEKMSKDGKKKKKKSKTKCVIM

| SMILES | pKd ([1]; Single Cycle Kinetics) | pIC50 ([4]; NCI-H441 cells, 4 days) | pKd [1, 7] | pIC50 [4, 10] | pKd ([1]; 1:1 binding model) | NRAS /KRAS [2, 5] | HRAS /KRAS [3, 6] | NRAS /KRAS [2, 8] | HRAS /KRAS [3, 9] |
| --- | --- | --- | --- | --- | --- | --- | --- | --- | --- |
| CCO[C@@H]1C[C@H]2C(=O)NC3(CCC3)C(=O)N(C)[C@@H](C3CCCC3)C(=O)N(C)[C@H](C(=O)N(C)C)CC(=O)N(C)[C@@H](CC3CC3)C(=O)N[C@@H]([C@@H](C)CC)C(=O)N(C)CC(=O)N(C)[C@H]3C/C=C\CCN(C3=O)[C@@H](Cc3ccc(F)cc3C)C(=O)N(C)CC(=O)N[C@@H](CCc3ccc(Cl)c(Cl)c3)C(=O)N2C1 [PP1476] | – | – | 9.00 | 6.67 | – | – | – | A (a compound having 10 or more and less than 20 is denoted as A) | B (a compound having 3 or more and less than 10 is denoted as B) |
| CCOC[C@H]1C(=O)N[C@@H]([C@@H](C)CC)C(=O)N(C)CC(=O)N(C)[C@H]2C/C=C\CCN(C2=O)[C@@H](Cc2ccc(C)cc2)C(=O)N(C)CC(=O)N[C@@H](CCc2cc(F)c(C(F)(F)F)c(F)c2)C(=O)N2C[C@H](OCC)C[C@H]2C(=O)NC2(CC(C)(C)C2)C(=O)N(C)[C@@H](C2CCCC2)C(=O)N(C)[C@H](C(=O)N(CC)CC)CC(=O)N1C [PP2408] | – | 7.67 | – | – | 9.64 | A (a compound having 10 or more and less than 20 is denoted as A) | A (a compound having 10 or more and less than 20 is denoted as A) | – | – |
| CCO[C@@H]1C[C@H]2C(=O)OC3(CCC3)C(=O)N(C)[C@@H](C3CCCC3)C(=O)N(C)[C@H](C(=O)N(C)C)CC(=O)N(C)[C@@H]([C@@H](C)OC)C(=O)N[C@@H]([C@@H](C)CC)C(=O)N3CCC[C@H]3C(=O)N(C)[C@H]3C/C=C\CCN(C3=O)[C@@H](Cc3ccc(C)cc3)C(=O)N(C)CC(=O)N[C@@H](CCc3ccc(C(F)(F)F)c(OC)c3)C(=O)N2C1 [PP3392] | 9.19 | 7.94 | – | – | – | A (a compound having 10 or more and less than 20 is denoted as A) | B (a compound having 3 or more and less than 10 is denoted as B) | – | – |
| CCO[C@@H]1C[C@H]2C(=O)OC3(CCC3)C(=O)N(C)[C@@H](C3CCCC3)C(=O)N(C)[C@H](C(=O)N(C)C)CC(=O)N(C)[C@@H]([C@H](C)OC)C(=O)N[C@@H]([C@@H](C)CC)C(=O)N(C)CC(=O)N(C)[C@H]3C/C=C\CCN(C3=O)[C@@H](Cc3ccc(C)cc3)C(=O)N(C)CC(=O)N[C@@H](CCc3ccc(C(F)(F)F)c(OC)c3)C(=O)N2C1 [PP3397] | 9.55 | 8.37 | – | – | – | A (a compound having 10 or more and less than 20 is denoted as A) | B (a compound having 3 or more and less than 10 is denoted as B) | – | – |
| CCO[C@@H]1C[C@H]2C(=O)NC3(CC(C)(C)C3)C(=O)N(C)[C@@H](C3CCCC3)C(=O)N(C)[C@H](C(=O)N(C)CC)CC(=O)N(C)[C@@H]([C@H](C)OC)C(=O)N[C@@H]([C@@H](C)CC)C(=O)N(C3CC3)CC(=O)N(C)[C@H]3C/C=C\CCN(C3=O)[C@@H](Cc3ccc(C(F)(F)F)cc3)C(=O)N(C)CC(=O)N[C@@H](CCc3ccc(C(F)(F)F)c(OC)c3)C(=O)N2C1 [PP3219] | 9.28 | 7.71 | – | – | – | A (a compound having 10 or more and less than 20 is denoted as A) | A (a compound having 10 or more and less than 20 is denoted as A) | – | – |

Further lines, with some results ahead:

| pKd ([1]; Single Cycle Kinetics) | pIC50 ([4]; NCI-H441 cells, 4 days) | pKd [1, 7] | pIC50 [4, 10] | pKd ([1]; 1:1 binding model) | SMILES | NRAS /KRAS [2, 5] | HRAS /KRAS [3, 6] | NRAS /KRAS [2, 8] | HRAS /KRAS [3, 9] |
| --- | --- | --- | --- | --- | --- | --- | --- | --- | --- |
| 9.77 | 7.91 | – | – | – | CCO[C@@H]1C[C@H]2C(=O)NC3(CCC3)C(=O)N(C)[C@@H](C3CCCC3)C(=O)N(C)[C@H](C(=O)N(C)C)CC(=O)N(C)[C@@H](CC(C)C)C(=O)N[C@@H]([C@@H](C)CC)C(=O)N(C)CC(=O)N(C)[C@H]3C/C(F)=C\CCN(C3=O)[C@@H](Cc3ccc(C(F)(F)F)cc3)C(=O)N(C)CC(=O)N[C@@H](CCc3cc(F)c(C(F)(F)F)c(F)c3)C(=O)N2C1 [PP3514] | B (a compound having 3 or more and less than 10 is denoted as B) | B (a compound having 3 or more and less than 10 is denoted as B) | – | – |
| 9.22 | 7.63 | – | – | – | CCCO[C@@H]1C[C@H]2C(=O)NC3(CC(C)(C)C3)C(=O)N(C)[C@@H](C3CCCC3)C(=O)N(C)[C@H](C(=O)N(C)CC)CC(=O)N(C)[C@@H](COCC)C(=O)N[C@@H]([C@@H](C)CC)C(=O)N3C[C@@H](F)C[C@H]3C(=O)N(C)[C@H]3C/C=C\CCN(C3=O)[C@@H](Cc3ccc(C)cc3)C(=O)N(C)CC(=O)N[C@@H](CCc3ccc(C(F)(F)F)c(Cl)c3)C(=O)N2C1 [PP3465] | A (a compound having 10 or more and less than 20 is denoted as A) | A (a compound having 10 or more and less than 20 is denoted as A) | – | – |
| – | – | 10.44 | 7.89 | – | CCCO[C@@H]1C[C@H]2C(=O)NC3(CCC3)C(=O)N(C)[C@@H](C3CCCC3)C(=O)N(C)[C@H](C(=O)N3CCOCC3)CC(=O)N(C)[C@@H](CC(C)C)C(=O)N[C@@H]([C@@H](C)CC)C(=O)N(C)CC(=O)N(C)[C@H]3CCCCN(C3=O)[C@@H](Cc3ccc(C(F)(F)F)cc3)C(=O)N(C)CC(=O)N[C@@H](CCc3cc(F)c(C(F)(F)F)c(F)c3)C(=O)N2C1 [PP1159] | – | – | C (A compound having a KD ratio of 0.1 or more and less than 3 is denoted as C) | B (a compound having 3 or more and less than 10 is denoted as B) |
| – | – | 9.70 | 7.55 | – | CCO[C@@H]1C[C@H]2C(=O)NC3(CCC3)C(=O)N(C)[C@@H](C3CCCC3)C(=O)N(C)[C@H](C(=O)N(C)C)CC(=O)N(C)[C@@H](CC3CCCC3)C(=O)N[C@@H]([C@@H](C)CC)C(=O)N(C)CC(=O)N(C)[C@H]3C/C=C\CCN(C3=O)[C@@H](Cc3ccc(C(F)(F)F)cc3)C(=O)N(C)CC(=O)N[C@@H](CCc3ccc(Cl)c(Cl)c3)C(=O)N2C1 [PP1254] | – | – | AA (a compound having 20 or more is denoted as AA) | A (a compound having 10 or more and less than 20 is denoted as A) |
| – | 7.76 | – | – | 9.89 | CCOC[C@H]1C(=O)N[C@@H]([C@@H](C)CC)C(=O)N(C)CC(=O)N(C)[C@H]2C/C=C\CCN(C2=O)[C@@H](Cc2ccc(C)cc2)C(=O)N(C)CC(=O)N[C@@H](CCc2ccc(C(F)(F)F)c(OC)c2)C(=O)N2C[C@@H](C)C[C@H]2C(=O)NC2(CC(C)(C)C2)C(=O)N(C)[C@@H](C2CCCC2)C(=O)N(C)[C@H](C(=O)N(C)C)CC(=O)N1C [PP2505] | A (a compound having 10 or more and less than 20 is denoted as A) | B (a compound having 3 or more and less than 10 is denoted as B) | – | – |
| – | – | 9.72 | 6.99 | – | CCO[C@@H]1C[C@H]2C(=O)NC3(CCC3)C(=O)N(C)[C@@H](C3CCCC3)C(=O)N(C)[C@H](C(=O)N3CCC3)CC(=O)N(C)[C@@H](CC)C(=O)N[C@@H]([C@@H](C)CC)C(=O)N(C)CC(=O)N(C)[C@H]3C/C=C\CCN(C3=O)[C@@H](CC3CCC(F)(F)CC3)C(=O)N(C)CC(=O)N[C@@H](CCc3cc(F)c(C(F)(F)F)c(F)c3)C(=O)N2C1 [PP1444] | – | – | A (a compound having 10 or more and less than 20 is denoted as A) | A (a compound having 10 or more and less than 20 is denoted as A) |
| – | 7.93 | – | – | 9.85 | CCOC[C@H]1C(=O)N[C@@H]([C@@H](C)CC)C(=O)N(C)CC(=O)N(C)[C@H]2C/C=C\CCN(C2=O)[C@@H](Cc2ccc(C)cc2)C(=O)N(C)CC(=O)N[C@@H](CCc2ccc(C(F)(F)F)c(OC)c2)C(=O)N2C[C@H](OCC)C[C@H]2C(=O)NC2(CC(C)(C)C2)C(=O)N(C)[C@@H](C2CCCC2)C(=O)N(C)[C@H](C(=O)N(C)CC)CC(=O)N1C [PP2445] | A (a compound having 10 or more and less than 20 is denoted as A) | B (a compound having 3 or more and less than 10 is denoted as B) | – | – |

Source: patent EP4603105A1, “PHARMACEUTICAL COMPOSITION CONTAINING CYCLIC COMPOUND HAVING SELECTIVE KRAS INHIBITORY EFFECT AGAINST HRAS AND NRAS” (CHUGAI SEIYAKU KABUSHIKI KAISHA, priority 2022, dated 2024)
